From patent US11566004B2, “Process for the preparation of bromodomain inhibitor” (Celgene Quanticel Research, Inc., priority 2018, dated 2023)
In brackets after ≈: the same amount, converted by molar mass. Read-outs that look alike come from different tables or passages of the source.

How the values were obtained:
[1] = Solubility of bromination starting material, product and impurity in CH2Cl2 (with or without 10% H2SO4); format: physicochemical; settings: for Solubility in CH2Cl2, 10% H2SO4, 10° C.: CH2Cl2 with 10% H2SO4, 10° C.; for Solubility in CH2Cl2, 10% H2SO4, 20° C.: CH2Cl2 with 10% H2SO4, 20° C.; for Solubility in CH2Cl2, 10% H2SO4, 30° C.: CH2Cl2 with 10% H2SO4, 30° C.
Protocol: This solubility difference is exploited by performing the reaction at a high concentration to drive Compound 5 out of solution once formed, thereby minimizing its ability to react further with the brominating reagent to form Compound 5-a diBr. The reaction is seeded with Compound 5 to initiate its crystallization.

[2] = Solubility of Compound 1 in process solvents (ICH class solvents, NMP, DMAc, formic acid); format: physicochemical; settings: for solubility: organic solvent or mixture
Source text: The final isolation of Compound 1 requires a polish filtration. For this, the batch must be completely soluble.
The solubility curve of Compound 1 in formic acid-Water is quite steep (see FIG. 7), which enables a volumetrically efficient process.

[3] = tested on: NCI-H460, human non-small cell lung cancer cells; settings: see U.S. Pat. No. 9,034,900; cited from earlier work
[4] = tested on: Raji, human Burkitts lymphoma cells; settings: see U.S. Pat. No. 9,034,900; cited from earlier work
bromodomain 4 (BRD4) = bromodomain 4 (BRD4) (Homo sapiens, UniProt O60885); settings: preliminary in vitro studies; see U.S. Pat. No. 9,034,900; cited from earlier work
[5] = tested on: HL-60, human proleukemia cells; settings: HL-60 cells; see U.S. Pat. No. 9,034,900; cited from earlier work
[6] = Solid phase and solution stability of boronic esters; format: physicochemical
Source text: The final bond forming step to Compound 1 is a Suzuki-Miyaura coupling between Compounds 2 and 3, as shown in Scheme 3 below (Norio, M. and Suzuki, A., Chem. Rev., 95(7), 2457-2483 (1995)). […] The pinacolatoboronate of the O-alkyl phenol, Compound 7, had acceptable solid phase stability and could be isolated via crystallization.
This was particularly problematic as the isolation process involved a solvent exchange from 2-MeTHF (2-methyl tetrahydrofuran) to iPrOAc (isopropyl acetate), which is not a fast unit operation on scale.

Row | Solubility in CH2Cl2, 10° C. [1] [mg/mL] | Solubility in CH2Cl2, 20° C. [1] [mg/mL] | Solubility in CH2Cl2, 30° C. [1] [mg/mL] | Solubility in CH2Cl2, 10% H2SO4, 10° C. [1] [mg/mL] | Solubility in CH2Cl2, 10% H2SO4, 20° C. [1] [mg/mL] | Solubility in CH2Cl2, 10% H2SO4, 30° C. [1] [mg/mL] | Structure (SMILES) | also measured
1 | 30 (≈ 174 mM) | 46 (≈ 267 mM) | 198 (≈ 1150 mM) | 19 (≈ 110 mM) | 51 (≈ 296 mM) | 390 (≈ 2260 mM) | CS(=O)(=O)c1ccc(O)cc1 [Compound 4, 4-(methylsulfonyl)phenol] | –
2 | – | – | – | – | – | – | Cn1cc(-c2cc(S(C)(=O)=O)ccc2OCC2CC2)c2ccccc2c1=O [Compound 1, 4-[2-(cyclopropylmethoxy)-S-methylsulfonylphenyl]-2-methylisoquinolin-1-one] | Solubility in almost all ICH Class 3 and common Class 2 (e.g. THF, MeCN) solvents ([2]; ICH Class 3 and common Class 2 solvents): low solubility; solubility ([2]; N-methyl-2-pyrrolidone (NMP), read-out: Solubility in N-methyl-2-pyrrolidone (NMP)): > 50 mg/mL; solubility ([2]; dimethylacetamide (DMAc), read-out: Solubility in dimethylacetamide (DMAc)): > 50 mg/mL; solubility ([2]; formic acid, 20° C., read-out: Solubility in formic acid): > 250 mg/mL; Solubility in a warm MeCN-water mix ([2]; warm MeCN-water mix): reasonable solubility; other cancer-related inhibitory activity [3]: observed; other cancer-related inhibitory activity [4]: observed; BRD4 inhibition (bromodomain 4 (BRD4)): observed; other cancer-related inhibitory activity [5]: observed
3 | 6 (≈ 23.9 mM) | 8 (≈ 31.9 mM) | 20 (≈ 79.6 mM) | 5 (≈ 19.9 mM) | 8 (≈ 31.9 mM) | 11 (≈ 43.8 mM) | CS(=O)(=O)c1ccc(O)c(Br)c1 [Compound 5] | –
4 | – | – | – | – | – | – | CC1(C)OB(c2cc(S(C)(=O)=O)ccc2OCC2CC2)OC1(C)C [Compound 7] | Solution stability ([6]; in solution, decomposing primarily to proteodeborylated compound 10): poor; Solid phase stability ([6]; solid phase): acceptable
5 | 5 (≈ 15.2 mM) | 7 (≈ 21.2 mM) | 10 (≈ 30.3 mM) | 5 (≈ 15.2 mM) | 7 (≈ 21.2 mM) | 14 (≈ 42.4 mM) | CS(=O)(=O)c1cc(Br)c(O)c(Br)c1 [Compound 5-a diBr] | –
